# Laboratory results as given in ChEMBL document CHEMBL3714750, “Aryl sulfonamides” (2008).
# pIC50: −log10 of the molar value. Activity calls are given as the source filed them. The rule behind the calls is not given here.
# Test system: Mus musculus
# Test: Inhibition of inflammatory bowel disease-associated growth retardation in MDR1a-knockout mouse at 50 mg/kg, sc dosed twice daily for 14 consecutive weeks starting at age 10 weeks
# Assay type: functional, organism-based
row,Structure (SMILES),Activity
1,CC(C)(C)c1ccc(S(=O)(=O)Nc2ccc(Cl)cc2C(=O)c2ccncc2)cc1,Active

# Target: T1, C-C chemokine receptor type 9 (Homo sapiens, UniProt P51686)
# T1 sequence (P51686 whole entry): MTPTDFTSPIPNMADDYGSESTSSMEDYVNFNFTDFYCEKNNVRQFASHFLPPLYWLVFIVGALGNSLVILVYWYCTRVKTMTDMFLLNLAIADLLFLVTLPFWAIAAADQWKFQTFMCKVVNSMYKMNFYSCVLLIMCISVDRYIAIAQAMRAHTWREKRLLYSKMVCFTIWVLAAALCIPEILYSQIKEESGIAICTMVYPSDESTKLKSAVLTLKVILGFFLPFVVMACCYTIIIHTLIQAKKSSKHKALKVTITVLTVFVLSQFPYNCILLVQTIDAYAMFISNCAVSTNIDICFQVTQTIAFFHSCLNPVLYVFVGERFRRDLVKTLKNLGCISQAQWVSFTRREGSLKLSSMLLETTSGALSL
# Test: Antagonist activity against CCR9 in human MOLT4 cells assessed as inhibition of human recombinant TECK-induced calcium response pre-treated before TECK stimulation by Flou-4-AM dye based FLIPR assay
# Assay type: functional, cell-based, MOLT-4
row,Structure (SMILES),pIC50
1,CC(C)(c1ccc(S(=O)(=O)Nc2ccc(Cl)cc2C(=O)c2cccnc2)cc1)c1ncco1,> 6.00
2,CC(C)(c1ccc(S(=O)(=O)Nc2ccc(Cl)cc2C(=O)c2ccnc(Cl)c2)cc1)c1ncco1,> 6.00
3,O=C(c1ccncc1)c1cc(Cl)ccc1NS(=O)(=O)c1ccc(-c2ccsc2)cc1,> 6.00
4,CC1(c2ccc(S(=O)(=O)Nc3ccc(Cl)cc3C(=O)c3cc[n+]([O-])cc3)cc2)OCCO1,> 6.00
5,CC(=O)N1CCN(c2ccc(S(=O)(=O)Nc3ccc(Cl)cc3C(=O)c3ccncc3)cc2)CC1,< 6.00
6,O=C(c1ccncc1)c1cc(Cl)ccc1NS(=O)(=O)c1ccc(-c2ncco2)cc1,> 6.00
7,CC(C)(CO)c1ccc(S(=O)(=O)Nc2ccc(Cl)cc2C(=O)c2ccncc2)cc1,> 6.00
8,O=C(c1ccncc1)c1cc(Cl)ccc1NS(=O)(=O)c1ccc(N2CCOCC2)cc1,> 6.00
9,COC(=O)CCc1ccc(S(=O)(=O)Nc2ccc(Cl)cc2C(=O)c2ccc(C)[n+]([O-])c2)cc1,> 6.00
10,Cc1ccc(C(=O)c2cc(Cl)ccc2NS(=O)(=O)c2ccc(C(C)(C)C)cc2)cn1,> 6.00
11,COc1ccc(S(=O)(=O)Nc2ccc(Cl)cc2C(=O)N2CCCC(Cc3ccccc3)C2)cc1 (stereo not given),< 6.00
12,Cc1ccc(C(=O)c2cc(Cl)ccc2NS(=O)(=O)c2ccc(N3CCOCC3)cc2)c[n+]1[O-],> 6.00
13,O=C(c1ccncc1)c1cc(Cl)ccc1NS(=O)(=O)c1ccc(-c2cnco2)cc1,> 6.00
14,CC(C)(c1ncco1)c1ccccc1S(=O)(=O)Nc1ccc(Cl)cc1C(=O)c1ccncc1,> 6.00
15,CC(=O)c1ccc(S(=O)(=O)Nc2ccc(Cl)cc2C(=O)c2ccc(C)nc2)cc1,< 6.00
16,CC(C)(c1ccc(S(=O)(=O)Nc2ccc(Cl)cc2C(=O)c2ccncc2)cc1)c1cocn1,> 6.00
17,Cc1noc(C)c1-c1ccc(S(=O)(=O)Nc2ccc(Cl)cc2C(=O)c2ccncc2)cc1,> 6.00
18,Cc1ccc(C(=O)c2cc(Cl)ccc2NS(=O)(=O)c2ccc(C(C)(C)c3ncco3)cc2)cn1,> 6.00

row,Structure (SMILES),pIC50
1,CC(C)Sc1ccc(S(=O)(=O)Nc2ccc(Cl)cc2C(=O)c2ccncc2)cc1,> 6.00
2,O=C(c1ccncc1)c1cc(Cl)ccc1NS(=O)(=O)c1ccc(OC(F)(F)F)cc1,> 6.00
3,O=C(c1ccncc1)c1cc(Cl)ccc1NS(=O)(=O)c1ccc(N2CCC2)cc1,> 6.00
4,CC(C)(C)c1ccc(S(=O)(=O)Nc2ccc(S(=O)(=O)N3CCCC3)cc2C(=O)c2cc[n+]([O-])cc2)cc1,< 6.00
5,COC(=O)CCc1ccc(S(=O)(=O)Nc2ccc(Cl)cc2C(=O)c2ccncc2)cc1,> 6.00
6,Cc1ccc(C(=O)c2cc(Cl)ccc2NS(=O)(=O)c2ccc(N3CCOCC3)c(F)c2)cn1,> 6.00
7,CC(C)(C)c1ccc(S(=O)(=O)Nc2ccc(Cl)cc2C(=O)c2cc[n+]([O-])c(Cl)c2)cc1,> 6.00
8,Cc1ccc(C(=O)c2cc(Cl)ccc2NS(=O)(=O)c2ccc(N3C[C@@H](C)O[C@@H](C)C3)c(F)c2)cn1,> 6.00
9,Cc1nnc(-c2cccc(S(=O)(=O)Nc3ccc(Cl)cc3C(=O)c3ccncc3)c2)o1,< 6.00
10,COC(=O)CCc1ccc(S(=O)(=O)Nc2ccc(Cl)cc2C(=O)c2cccnc2)cc1,> 6.00
11,CC(C)c1ccc(S(=O)(=O)Nc2ccc(Br)cc2C(=O)c2ccncc2)cc1,> 6.00
12,Cc1ccc(C(=O)c2cc(Cl)ccc2NS(=O)(=O)c2ccc(-c3nnc(C)o3)cc2)cn1,< 6.00
13,CC(C)(C)c1ccc(S(=O)(=O)Nc2ccc(Cl)cc2C(=O)c2cc[nH]n2)cc1,> 6.00
14,Cc1cc(C(=O)c2cc(Cl)ccc2NS(=O)(=O)c2ccc(OC(C)C)cc2)ccn1,> 6.00
15,O=C(c1ccncc1)c1cc(Cl)ccc1NS(=O)(=O)c1ccc(Cl)cc1,< 6.00
16,O=C(c1ccncc1)c1cc(Cl)ccc1NS(=O)(=O)c1ccc(N2CCNCC2)cc1,< 6.00
17,CC1(c2ccc(S(=O)(=O)Nc3ccc(Cl)cc3C(=O)c3ccccn3)cc2)CCOCC1,> 6.00
18,CC(=O)c1ccc(S(=O)(=O)Nc2ccc(Cl)cc2C(=O)c2ccncc2)cc1,< 6.00

# The remaining lines, values ahead:
row,pIC50,Structure (SMILES)
1,> 6.00,CSc1ccc(C(=O)c2cc(Cl)ccc2NS(=O)(=O)c2ccc(C(C)(C)C)cc2)cn1
2,< 6.00,Cn1nnnc1-c1ccc(S(=O)(=O)Nc2ccc(Cl)cc2C(=O)c2ccncc2)cc1
3,< 6.00,CC(C)(C)OC(=O)n1cccc1-c1ccc(S(=O)(=O)Nc2ccc(Cl)cc2C(=O)c2ccncc2)cc1
4,< 6.00,Cc1nnc(-c2ccc(S(=O)(=O)Nc3ccc(Cl)cc3C(=O)c3ccccn3)cc2)o1
5,> 6.00,CC(C)(C)c1ccc(S(=O)(=O)Nc2ccc(Cl)cc2C(=O)c2ccncc2)cc1
6,> 6.00,Cc1cc(C(=O)c2cc(Cl)ccc2NS(=O)(=O)c2ccc(C3(C)CCOCC3)cc2)ccn1
7,< 6.00,Cc1cccc(C(=O)c2cc(Cl)ccc2NS(=O)(=O)c2ccc(-c3cnc(C)o3)cc2)n1
8,< 6.00,O=C(c1ccncn1)c1cc(Cl)ccc1NS(=O)(=O)c1ccc(-c2cnco2)cc1
9,> 6.00,CC(C)Oc1ccc(S(=O)(=O)Nc2ccc(Cl)cc2C(=O)c2cccnc2)cc1
10,> 6.00,O=C(c1ccc[n+]([O-])c1)c1cc(Cl)ccc1NS(=O)(=O)c1ccc(N2CCOCC2)cc1
11,> 6.00,CC(C)(c1ccc(S(=O)(=O)Nc2ccc(Cl)cc2C(=O)c2ccncc2)cc1)N1CCCCC1=O
12,> 6.00,CCC(C)(C)c1ccc(S(=O)(=O)Nc2ccc(Cl)cc2C(=O)c2ccncc2)cc1
13,< 6.00,O=C(c1ccncc1)c1cc(Cl)ccc1NS(=O)(=O)c1ccc(N2CCN(CC(F)(F)F)CC2)cc1
14,> 6.00,CC(C)(C)c1ccc(S(=O)(=O)Nc2ccc(Cl)cc2C(=O)c2ccc(Cl)nc2)cc1
15,> 6.00,Cc1cccc(C(=O)c2cc(Cl)ccc2NS(=O)(=O)c2ccc(C3(C)CCOCC3)cc2)n1
16,< 6.00,CN(C)C(=O)CCc1ccc(S(=O)(=O)Nc2ccc(Cl)cc2C(=O)c2ccncc2)cc1
17,> 6.00,Cc1ccc(C(=O)c2cc(Cl)ccc2NS(=O)(=O)c2ccc(C(C)(C)c3cocn3)cc2)cn1

row,pIC50,Structure (SMILES)
1,> 6.00,O=C(c1cccnc1)c1cc(Cl)ccc1NS(=O)(=O)c1ccc(N2CCOCC2)cc1
2,> 6.00,C[C@@H]1CN(c2ccc(S(=O)(=O)Nc3ccc(Cl)cc3C(=O)c3ccncc3)cc2F)C[C@H](C)O1
3,> 6.00,Cc1ncccc1C(=O)c1cc(Cl)ccc1NS(=O)(=O)c1ccc(C(C)(C)C)cc1
4,> 6.00,CC(C)(C)c1ccc(S(=O)(=O)Nc2ccc(F)cc2C(=O)c2ccncc2)cc1
5,> 6.00,Cc1ccc(C(=O)c2cc(Cl)ccc2NS(=O)(=O)c2ccc(-c3cnco3)cc2)cn1
6,> 6.00,Cc1cc(C(=O)c2cc(Cl)ccc2NS(=O)(=O)c2ccc(C(C)(C)C)cc2)cc[n+]1[O-]
7,> 6.00,COc1ccc(S(=O)(=O)Nc2ccc(Cl)cc2C(=O)NCCc2ccccc2)cc1
8,> 6.00,C[C@@H]1CN(c2ccc(S(=O)(=O)Nc3ccc(Cl)cc3C(=O)c3ccc[n+]([O-])c3)cc2)C[C@H](C)O1
9,> 6.00,CC(C)Oc1ccc(S(=O)(=O)Nc2ccc(Br)cc2C(=O)c2ccncc2)cc1
10,> 6.00,CCc1ccc(S(=O)(=O)Nc2ccc(Cl)cc2C(=O)c2ccncc2)cc1
11,> 6.00,O=C(c1ccncc1)c1cc(Cl)ccc1NS(=O)(=O)c1ccc(N2CCSCC2)cc1
12,> 6.00,O=C(c1cc[n+]([O-])cc1)c1cc(Cl)ccc1NS(=O)(=O)c1ccc(N2CCOCC2)c(F)c1
13,> 6.00,CC(C)(c1ccc(S(=O)(=O)Nc2ccc(Cl)cc2C(=O)c2ccncc2)cc1)c1cnco1
14,> 6.00,Cc1ccc(C(=O)c2cc(Cl)ccc2NS(=O)(=O)c2ccc(C(C)(C)c3cnco3)cc2)cn1
15,> 6.00,Cc1cc(C(=O)c2cc(Cl)ccc2NS(=O)(=O)c2ccc(OC(F)(F)F)cc2)ccn1
16,> 6.00,CC(C)(C)c1ccc(S(=O)(=O)Nc2cc(F)c(F)cc2C(=O)c2ccncc2)cc1
